Assay results published in US20100048488A1, “IMMUNOMODULATORY PEPTIDES” (Syntonix Pharmaceuticals, Inc., priority 2008, published 2010).

Tests used:
[1] = Solubility by visual inspection of lyophilized peptide in buffer; format: physicochemical; conditions: for Solubility at 50 mg/mL peptide in PBS + 40 mM sodium phosphate, pH 7.4, after 30 minutes at room temperature: PBS + 40 mM sodium phosphate pH 7.4, 30 minutes room temperature; for Solubility at 100 mg/mL peptide in 100 mM sodium phosphate, pH 7.4, after 30 minutes at room temperature: 100 mM sodium phosphate pH 7.4, 30 minutes room temperature
[2] = Pharmacokinetics in SD rats (serum peptide concentration by LCMS); format: in vivo; conditions: rat, sc, single subcutaneous dose, peptide concentration 30 mg/mL; for level at 0.5 h: timepoint 0.5 hr; for level at 2 h: timepoint 2.00 hr; for level at 4 h: timepoint 4.00 hr; for level at 6 h: timepoint 6.00 hr; for level at 24 h: timepoint 24.00 hr; for level at 48 h: timepoint 48.00 hr
Experimental: SD Rats (3 per group) were treated with a single subcutaneous dose of either Peptide 283 or Peptide 310, at a peptide concentration of 30 mg/mL. Blood was collected at 0.5, 2, 4, 6, 24, 48 hours, serum was prepared and the peptide concentrations in serum were determined by LCMS.

[3] = target: T1, soluble human FcRn (shFcRn) (Homo sapiens, UniProt P55899); assay: Peptide-IgG competition ELISA; format: binding; conditions: 3 nM human IgG, pH 6, 37° C. 2 hours
T1 construct: made in house; host or cells: Chinese hamster ovary (CHO) cells, glutamine synthetase expression system
Experimental: The wells were coated with 100 μl/well of 1 μg/ml biotinylated-shFcRn in Buffer A. The plate was sealed and incubated at 37° C. for 2 hours. Afterwards, the plate was washed with 200 μl/well of Buffer B (Buffer B: 100 mM MES pH 6, 150 mM NaCl, 0.5% BSA IgG-free (Jackson ImmunoResearch, West Grove, Pa.), 0.05% Tween-20). […] To allow for mixing, the plate was rocked for 2 minutes, sealed and incubated at 37° C. for 2 hours. […] The plate was covered, incubated for 30 minutes at room temperature and washed 4 times with 200 μl/well of ice-cold buffer B. SureBlue TMB substrate solution (100 μl/well, KPL, Gaithersburg, Md.) was added and the plate was allowed to incubate at room temperature until color developed, which took 5 to 10 minutes. Once color developed, 100 μl/well of TMB stop solution (KPL, Gaithersburg, Md.) was added and the absorbance was measured at 450 nm.

Row | Solubility at 50 mg/mL peptide in PBS + 40 mM sodium phosphate, pH 7.4, after 30 minutes at room temperature [1] | Solubility at 100 mg/mL peptide in 100 mM sodium phosphate, pH 7.4, after 30 minutes at room temperature [1] | level at 0.5 h [2] | level at 2 h [2] | level at 4 h [2] | level at 6 h [2] | level at 24 h [2] | level at 48 h [2] | IC50 [3] | Structure (SMILES)
1 | Insoluble | Insoluble | 23 ± 14 ng/mL | 50 ± 16 ng/mL | 66 ± 42 ng/mL | 68 ± 34 ng/mL | 41 ± 6 ng/mL | 19 ± 4 ng/mL | – | CC(C)C[C@H]1C(=O)N[C@@H](Cc2ccc(O)cc2)C(=O)N2CCC[C@H]2C(=O)N[C@H](C(N)=O)CSSC(C)(C)[C@H](NC(=O)[C@H](Cc2ccccc2)NC(=O)[C@H](CCCNC(=N)N)NC(=O)CCC(=O)N[C@@H](CCCNC(=N)N)C(=O)N[C@@H](Cc2ccccc2)C(=O)N[C@@H]2C(=O)N[C@@H]([C@@H](C)O)C(=O)NCC(=O)N[C@@H](Cc3c[nH]cn3)C(=O)N[C@@H](Cc3ccccc3)C(=O)NCC(=O)N(C)CC(=O)N(C)[C@@H](CC(C)C)C(=O)N[C@@H](Cc3ccc(O)cc3)C(=O)N3CCC[C@H]3C(=O)N[C@H](C(N)=O)CSSC2(C)C)C(=O)N[C@@H]([C@@H](C)O)C(=O)NCC(=O)N[C@@H](Cc2c[nH]cn2)C(=O)N[C@@H](Cc2ccccc2)C(=O)NCC(=O)N(C)CC(=O)N1C [Peptide No. 283]
2 | Soluble | Soluble | 137 ± 60 ng/mL | 183 ± 81 ng/mL | 440 ± 156 ng/mL | 557 ± 268 ng/mL | 117 ± 36 ng/mL | 37 ± 15 ng/mL | 1.8 ± 1.1 nM | CC(C)C[C@H]1C(=O)N[C@@H](Cc2ccc(O)cc2)C(=O)N2CCC[C@H]2C(=O)N[C@H](C(=O)N[C@@H](CCCCN)C(N)=O)CSSC(C)(C)[C@H](NC(=O)[C@H](Cc2ccccc2)NC(=O)[C@H](CCCNC(=N)N)NC(=O)CCC(=O)N[C@@H](CCCNC(=N)N)C(=O)N[C@@H](Cc2ccccc2)C(=O)N[C@@H]2C(=O)N[C@@H]([C@@H](C)O)C(=O)NCC(=O)N[C@@H](Cc3c[nH]cn3)C(=O)N[C@@H](Cc3ccccc3)C(=O)NCC(=O)N(C)CC(=O)N(C)[C@@H](CC(C)C)C(=O)N[C@@H](Cc3ccc(O)cc3)C(=O)N3CCC[C@H]3C(=O)N[C@H](C(=O)N[C@@H](CCCCN)C(N)=O)CSSC2(C)C)C(=O)N[C@@H]([C@@H](C)O)C(=O)NCC(=O)N[C@@H](Cc2c[nH]cn2)C(=O)N[C@@H](Cc2ccccc2)C(=O)NCC(=O)N(C)CC(=O)N1C [Peptide No. 310]
3 | Insoluble | Insoluble | – | – | – | – | – | – | 1.5 ± 0.7 nM | CC(C)C[C@H]1C(=O)N[C@@H](Cc2ccc(O)cc2)C(=O)N2CCC[C@H]2C(=O)N[C@H](C(=O)N[C@@H](CCCNC(=N)N)C(N)=O)CSSC(C)(C)[C@H](NC(=O)[C@H](Cc2ccccc2)NC(=O)[C@H](CCCNC(=N)N)NC(=O)CCC(=O)N[C@@H](CCCNC(=N)N)C(=O)N[C@@H](Cc2ccccc2)C(=O)N[C@@H]2C(=O)N[C@@H]([C@@H](C)O)C(=O)NCC(=O)N[C@@H](Cc3c[nH]cn3)C(=O)N[C@@H](Cc3ccccc3)C(=O)NCC(=O)N(C)CC(=O)N(C)[C@@H](CC(C)C)C(=O)N[C@@H](Cc3ccc(O)cc3)C(=O)N3CCC[C@H]3C(=O)N[C@H](C(=O)N[C@@H](CCCNC(=N)N)C(N)=O)CSSC2(C)C)C(=O)N[C@@H]([C@@H](C)O)C(=O)NCC(=O)N[C@@H](Cc2c[nH]cn2)C(=O)N[C@@H](Cc2ccccc2)C(=O)NCC(=O)N(C)CC(=O)N1C [Peptide No. 311]
